From ChEMBL document CHEMBL3745609, “Discovery of pyrazolopyrimidine phosphodiesterase 10A inhibitors for the treatment of schizophrenia” (Bioorg Med Chem Lett, 2016)
≈ marks a conversion by molar mass, not a printed value. Blank lines part the entries; values can stand above or below the compound they belong to. Calls of active or inactive are those of the source. No cut-off for these calls is given here.

Columns and labels:
[1] = biological target: cAMP and cAMP-inhibited cGMP 3',5'-cyclic phosphodiesterase 10A (Homo sapiens, UniProt Q9Y233); experiment: Inhibition of PDE10A (unknown origin) by IMAP assay
[2] = Aqueous solubility of the compound at pH 7; assay type: physicochemical
[3] = biological target: T1, Nuclear receptor subfamily 1 group I member 2 (Homo sapiens, UniProt O75469); experiment: Activation of PXR (unknown origin); assay type: ADME
T1 sequence (O75469 whole entry): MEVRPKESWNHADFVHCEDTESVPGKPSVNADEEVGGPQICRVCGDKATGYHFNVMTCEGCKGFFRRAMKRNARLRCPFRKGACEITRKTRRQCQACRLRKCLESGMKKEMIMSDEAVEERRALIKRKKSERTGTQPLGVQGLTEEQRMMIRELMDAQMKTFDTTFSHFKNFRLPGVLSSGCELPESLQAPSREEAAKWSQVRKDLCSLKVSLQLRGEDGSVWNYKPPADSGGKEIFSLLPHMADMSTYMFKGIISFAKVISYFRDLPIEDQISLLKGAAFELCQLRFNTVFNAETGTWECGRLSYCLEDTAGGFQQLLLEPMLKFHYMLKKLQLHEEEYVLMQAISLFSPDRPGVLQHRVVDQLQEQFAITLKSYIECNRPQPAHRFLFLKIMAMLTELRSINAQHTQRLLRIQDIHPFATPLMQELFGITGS

[4] = biological target: Voltage-gated inwardly rectifying potassium channel KCNH2 (Homo sapiens, UniProt Q12809); experiment: Inhibition of MK-499 binding to human ERG
[5] = Plasma protein binding in rat; assay type: ADME, cell-free; settings: read-out: PPB (converted)
Cytochrome P450 3A4 [6] = biological target: T2, Cytochrome P450 3A4 (Homo sapiens, UniProt P08684); experiment: Inhibition of CYP3A4 (unknown origin); assay type: ADME
[7] = Plasma protein binding in iv dosed Wistar Hanover rat; assay type: ADME, organism-based; settings: read-out: PPB (converted)
Cytochrome P450 2D6 = Cytochrome P450 2D6 (Homo sapiens, UniProt P10635); experiment: Inhibition of CYP2D6 (unknown origin); assay type: ADME
[8] = Plasma clearance in iv dosed Wistar Hanover rat; assay type: ADME, organism-based
Rattus norvegicus [9] = species on record: Rattus norvegicus; experiment: Anti-psychotic activity in rat assessed as reversal of MK-801-induced prepulse inhibition; assay type: functional, organism-based
[10] = Lipophilicity, log D of the compound at pH 7 by HPLC method; assay type: physicochemical; settings: buffer
[11] = Apparent passive permeability of the compound; assay type: physicochemical; settings: not told
P-gp [12] = experiment: Substrate activity at human P-gp assessed as efflux ratio of permeability across basolateral to apical over apical to basolateral side; assay type: ADME; settings: not told
P-gp [13] = experiment: Substrate activity at rat P-gp assessed as efflux ratio of permeability across basolateral to apical over apical to basolateral side; assay type: ADME; settings: not told
Cytochrome P450 3A4 [14] = biological target: T2, Cytochrome P450 3A4; experiment: Time dependent inhibition of CYP3A4 (unknown origin); assay type: ADME
[15] = Plasma protein binding in iv dosed beagle dog; assay type: ADME, organism-based, Canis lupus familiaris; settings: read-out: PPB (converted)
[16] = Plasma protein binding in iv dosed rhesus monkey; assay type: ADME, organism-based, Macaca mulatta; settings: read-out: PPB (converted)
[17] = Plasma protein binding in iv dosed human; assay type: ADME, organism-based; settings: read-out: PPB (converted)
[18] = Inhibition of platelet aggregation factor (unknown origin); set-up: species or system Homo sapiens
Rattus norvegicus [19] = experiment: Toxicity in rat up to 250 mg/kg after 7 days; assay type: organism-based; settings: in vivo, 168 h
[20] = Plasma clearance in iv dosed beagle dog; assay type: ADME, organism-based, Canis lupus familiaris
[21] = Plasma clearance in iv dosed rhesus monkey; assay type: ADME, organism-based, Macaca mulatta
[22] = Terminal half life in iv dosed Wistar Hanover rat; assay type: ADME, organism-based; settings: in vivo, read-out: beta t1/2 (converted)
[23] = Terminal half life in iv dosed beagle dog; assay type: ADME, organism-based, Canis lupus familiaris; settings: in vivo, read-out: beta t1/2 (converted)
[24] = Terminal half life in iv dosed rhesus monkey; assay type: ADME, organism-based, Macaca mulatta; settings: in vivo, read-out: beta t1/2 (converted)
[25] = Oral bioavailability in Wistar Hanover rat; assay type: ADME, organism-based; settings: in vivo
[26] = Oral bioavailability in beagle dog; assay type: ADME, organism-based, Canis lupus familiaris; settings: in vivo
[27] = Oral bioavailability in rhesus monkey; assay type: ADME, organism-based, Macaca mulatta; settings: in vivo
Rattus norvegicus [28] = experiment: In vivo inhibition of PDE10A in rat striatum assessed as increase in cGMP level at >3 mg/kg, po after 2 hrs relative to control; assay type: functional
Rattus norvegicus [29] = experiment: Anti-psychotic activity in rat assessed as plasma concentration needed to attenuate MK-801-induced hyperlocomotion at 1.5 mg/kg, po; assay type: functional
Rattus norvegicus [30] = experiment: Cognition enhancing activity in rat assessed as increase in episodic like memory up to 1.5 mg/kg, po by novel object recognition assay; assay type: functional, organism-based
Salmonella typhimurium = experiment: Mutagenicity in Salmonella typhimurium up to 5000 ug/plate by 5-strain Ames test; assay type: toxicity, organism-based; settings: salmonella enterica subsp. enterica serovar typhimurium
Cavia porcellus = species on record: Cavia porcellus; experiment: Toxicity in guinea pig; assay type: organism-based; settings: in vivo
Rattus norvegicus [31] = experiment: Cardiotoxicity in iv dosed rat; assay type: toxicity, organism-based; settings: in vivo
Rattus norvegicus [32] = experiment: Toxicity in rat assessed as influence on circulating prolactin level up to 30 mg/kg, po; assay type: organism-based; settings: in vivo
Rattus norvegicus [33] = experiment: Toxicity in rat assessed as induction of catalepsy up to 30 mg/kg, po; assay type: organism-based; settings: in vivo
Rattus norvegicus [34] = species on record: Rattus norvegicus; experiment: Toxicity in rat assessed as decrease in body weight gain after 7 days; assay type: organism-based; settings: in vivo, 168 h
Rattus norvegicus [35] = species on record: Rattus norvegicus; experiment: Toxicity in rat assessed as decrease in total body fat after 7 days; assay type: organism-based; settings: in vivo, 168 h
Rattus norvegicus [36] = species on record: Rattus norvegicus; experiment: Toxicity in rat assessed as lean body mass after 7 days; assay type: organism-based; settings: in vivo, 168 h
Rhesus monkey [37] = experiment: In-vivo occupancy at PDE10A in rhesus monkey assessed as inhibition of [11C]MK-8193 binding; assay type: functional, Macaca mulatta
Rhesus monkey [38] = experiment: Potency index, ratio of THPP-1 Occ50 to compound Occ50 for in-vivo occupancy at PDE10A in rhesus monkey assessed as inhibition of [11C]MK-8193 binding; assay type: functional, Macaca mulatta
Homo sapiens = species on record: Homo sapiens; experiment: Selectivity for PDE10A (unknown origin) over PDE (unknown origin)
[39] = Clearance in rat; assay type: ADME, organism-based; settings: in vivo
Cytochrome P450 2C9 = Cytochrome P450 2C9 (Homo sapiens, UniProt P11712); experiment: Inhibition of CYP2C9 (unknown origin); assay type: ADME
Sequence of Cytochrome P450 2C9 (P11712 whole entry): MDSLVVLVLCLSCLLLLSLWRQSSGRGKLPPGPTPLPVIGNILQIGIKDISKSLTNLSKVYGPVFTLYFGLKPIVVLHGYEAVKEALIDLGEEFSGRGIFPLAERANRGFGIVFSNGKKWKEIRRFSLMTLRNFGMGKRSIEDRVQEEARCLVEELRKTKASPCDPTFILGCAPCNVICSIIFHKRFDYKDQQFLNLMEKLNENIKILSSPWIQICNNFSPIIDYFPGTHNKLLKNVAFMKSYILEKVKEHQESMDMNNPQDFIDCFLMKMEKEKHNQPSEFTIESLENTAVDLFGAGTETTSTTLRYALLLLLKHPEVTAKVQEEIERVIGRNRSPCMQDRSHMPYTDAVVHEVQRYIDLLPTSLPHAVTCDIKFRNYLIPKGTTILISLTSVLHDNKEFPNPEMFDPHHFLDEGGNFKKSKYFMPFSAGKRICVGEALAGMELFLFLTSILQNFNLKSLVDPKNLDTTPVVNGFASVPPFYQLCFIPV

Sequence of Voltage-gated inwardly rectifying potassium channel KCNH2 (Q12809 whole entry): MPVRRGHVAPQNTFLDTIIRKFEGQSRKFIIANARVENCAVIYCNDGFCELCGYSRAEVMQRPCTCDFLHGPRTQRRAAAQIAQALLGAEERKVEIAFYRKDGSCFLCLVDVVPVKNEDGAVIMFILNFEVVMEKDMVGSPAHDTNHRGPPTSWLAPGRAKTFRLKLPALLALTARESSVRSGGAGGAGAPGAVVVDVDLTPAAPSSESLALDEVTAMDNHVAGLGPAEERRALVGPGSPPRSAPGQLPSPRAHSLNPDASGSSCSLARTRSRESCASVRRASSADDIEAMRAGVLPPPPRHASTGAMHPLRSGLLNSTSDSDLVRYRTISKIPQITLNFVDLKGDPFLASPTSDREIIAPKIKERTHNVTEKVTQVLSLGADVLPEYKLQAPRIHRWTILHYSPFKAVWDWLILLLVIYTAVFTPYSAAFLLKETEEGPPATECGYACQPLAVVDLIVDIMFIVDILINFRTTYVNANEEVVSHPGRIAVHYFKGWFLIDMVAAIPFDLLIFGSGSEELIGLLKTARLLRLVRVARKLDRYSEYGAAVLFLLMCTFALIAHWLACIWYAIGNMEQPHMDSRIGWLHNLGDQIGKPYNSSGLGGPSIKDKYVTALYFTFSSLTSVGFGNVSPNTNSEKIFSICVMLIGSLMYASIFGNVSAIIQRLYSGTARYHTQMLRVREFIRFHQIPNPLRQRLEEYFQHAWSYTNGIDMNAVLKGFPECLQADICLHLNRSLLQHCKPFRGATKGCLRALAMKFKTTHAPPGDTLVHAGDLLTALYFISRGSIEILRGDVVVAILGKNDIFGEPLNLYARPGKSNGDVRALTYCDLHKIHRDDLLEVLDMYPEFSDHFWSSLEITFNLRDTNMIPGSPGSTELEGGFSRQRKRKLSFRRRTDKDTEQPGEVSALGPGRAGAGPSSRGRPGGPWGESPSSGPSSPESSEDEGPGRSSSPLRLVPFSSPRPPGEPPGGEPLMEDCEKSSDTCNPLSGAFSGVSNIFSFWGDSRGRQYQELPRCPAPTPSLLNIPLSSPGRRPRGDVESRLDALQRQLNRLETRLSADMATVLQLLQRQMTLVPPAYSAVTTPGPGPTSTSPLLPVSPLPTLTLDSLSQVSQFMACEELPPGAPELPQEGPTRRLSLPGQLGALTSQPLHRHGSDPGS
T2 sequence (P08684 whole entry): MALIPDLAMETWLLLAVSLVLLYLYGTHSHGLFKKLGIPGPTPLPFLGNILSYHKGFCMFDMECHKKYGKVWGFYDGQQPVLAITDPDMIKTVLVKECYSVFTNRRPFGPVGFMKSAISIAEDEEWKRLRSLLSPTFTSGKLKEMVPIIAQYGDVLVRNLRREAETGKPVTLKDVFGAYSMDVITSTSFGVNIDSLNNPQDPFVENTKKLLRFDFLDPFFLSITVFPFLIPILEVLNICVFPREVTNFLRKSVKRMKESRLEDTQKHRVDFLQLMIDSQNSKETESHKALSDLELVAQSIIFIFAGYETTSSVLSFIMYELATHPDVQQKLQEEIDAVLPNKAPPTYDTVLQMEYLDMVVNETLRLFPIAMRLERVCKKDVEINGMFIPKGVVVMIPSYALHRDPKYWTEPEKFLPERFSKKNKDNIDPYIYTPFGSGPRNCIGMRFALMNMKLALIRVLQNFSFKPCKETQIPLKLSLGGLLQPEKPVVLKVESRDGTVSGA
Sequence of cAMP and cAMP-inhibited cGMP 3',5'-cyclic phosphodiesterase 10A (Q9Y233 whole entry): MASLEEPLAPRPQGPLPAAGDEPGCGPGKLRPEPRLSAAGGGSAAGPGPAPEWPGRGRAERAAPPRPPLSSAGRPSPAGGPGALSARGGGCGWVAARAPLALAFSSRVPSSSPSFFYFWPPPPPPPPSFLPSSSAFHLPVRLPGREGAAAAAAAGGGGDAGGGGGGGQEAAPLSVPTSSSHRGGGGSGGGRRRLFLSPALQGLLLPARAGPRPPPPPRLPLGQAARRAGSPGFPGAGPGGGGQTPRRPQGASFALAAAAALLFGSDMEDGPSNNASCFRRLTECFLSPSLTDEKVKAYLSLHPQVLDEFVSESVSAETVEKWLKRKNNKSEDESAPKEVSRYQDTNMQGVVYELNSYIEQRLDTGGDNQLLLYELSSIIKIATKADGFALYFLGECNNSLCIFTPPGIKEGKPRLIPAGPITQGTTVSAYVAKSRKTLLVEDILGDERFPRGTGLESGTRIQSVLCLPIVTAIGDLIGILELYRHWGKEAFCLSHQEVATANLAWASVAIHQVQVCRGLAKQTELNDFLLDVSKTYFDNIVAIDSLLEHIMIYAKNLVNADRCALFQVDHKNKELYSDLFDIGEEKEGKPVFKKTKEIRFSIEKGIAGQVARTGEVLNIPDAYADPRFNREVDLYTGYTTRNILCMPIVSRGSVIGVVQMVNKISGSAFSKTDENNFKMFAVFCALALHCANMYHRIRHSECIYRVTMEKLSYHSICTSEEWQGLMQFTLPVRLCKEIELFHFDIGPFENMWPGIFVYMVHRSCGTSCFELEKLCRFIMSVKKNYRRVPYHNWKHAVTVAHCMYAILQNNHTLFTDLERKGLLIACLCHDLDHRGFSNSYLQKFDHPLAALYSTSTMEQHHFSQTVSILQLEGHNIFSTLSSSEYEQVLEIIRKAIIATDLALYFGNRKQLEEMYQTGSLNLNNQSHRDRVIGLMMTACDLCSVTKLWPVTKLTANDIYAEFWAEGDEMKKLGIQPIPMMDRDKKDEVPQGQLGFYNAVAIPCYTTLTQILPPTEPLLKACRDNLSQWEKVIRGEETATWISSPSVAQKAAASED
Sequence of Cytochrome P450 2D6 (P10635 whole entry): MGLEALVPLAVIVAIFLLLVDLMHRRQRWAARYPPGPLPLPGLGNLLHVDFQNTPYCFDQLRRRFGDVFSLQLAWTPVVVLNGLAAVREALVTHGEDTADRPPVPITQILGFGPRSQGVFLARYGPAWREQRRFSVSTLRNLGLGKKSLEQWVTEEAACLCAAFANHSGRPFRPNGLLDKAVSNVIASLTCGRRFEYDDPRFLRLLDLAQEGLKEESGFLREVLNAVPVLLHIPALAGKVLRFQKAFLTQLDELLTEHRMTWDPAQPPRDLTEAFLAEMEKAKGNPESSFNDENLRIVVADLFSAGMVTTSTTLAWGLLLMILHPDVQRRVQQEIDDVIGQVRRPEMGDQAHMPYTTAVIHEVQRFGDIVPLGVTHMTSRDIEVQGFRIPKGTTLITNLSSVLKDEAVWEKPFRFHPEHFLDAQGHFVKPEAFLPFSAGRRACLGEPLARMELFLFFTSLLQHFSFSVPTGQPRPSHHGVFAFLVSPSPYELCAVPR

Compound: Cc1nc(C)c(CNc2nc(OCC3CC3c3cc4ccccn4n3)nc(Cl)c2C)s1 (racemic)
Ki [1]: 0.006 nM

Compound: Cc1nc(C)c(CNc2nc(OCC3CC3c3ncccn3)nc(Cl)c2C)s1 (racemic)
Ki [1]: 3.6 nM

Compound: Cc1nc(C)c(CNc2nc(CC[C@H]3C[C@@H]3c3ccccn3)nc(Cl)c2C)s1 (racemic)
Ki [1]: 1.7 nM

Compound: Cc1nc(C)c(CNc2nc(CCC#Cc3ccccn3)nc(Cl)c2C)s1
Ki [1]: 1.1 nM

Compound: Cc1ccnc(C2CC2COc2nc(Cl)c(C)c(NCc3sc(C)nc3C)n2)c1 (centres undefined)
Ki [1]: 0.01 nM

Compound: Clc1cc(Cl)n2nccc2n1
Ki [1]: 24000 nM | solubility [2]: > 500 µM

Compound: Cc1nc(C)c(CNc2nc(OC[C@H]3C[C@@H]3c3ccccn3)nc(Cl)c2C)s1
Ki [1]: 0.03 nM

Compound: Cc1nc(C)c(CNc2cc(Cl)nc3ccnn23)s1
Ki [1]: 58 nM

Compound: Cc1nc(C)c(CNc2nc(NCCCc3ccccn3)nc(Cl)c2C)s1
Ki [1]: 4.1 nM

Compound: Cc1nc(C)c(CNc2nc(CCCCc3ccccn3)nc(Cl)c2C)s1
Ki [1]: 0.4 nM

Compound: Cn1cc(CNc2cc(OC[C@H]3C[C@@H]3c3ccccn3)nc3ccnn23)cn1
Activity (Rattus norvegicus [9]): Dose-dependent effect | EC50 [3]: > 25000 nM | Ki [1]: 0.23 nM | logD [10]: 2 | INH [4]: > 60 µM | Papp [11]: 36 ×10⁻⁶ cm/s | efflux ratio (P-gp [12]): 0.6 | efflux ratio (P-gp [13]): 0.7 | TDI (Cytochrome P450 3A4 [14]): Not Active | fraction unbound [7]: 0.09 | clearance [8]: 21 mL/min/kg | fraction unbound [15]: 0.06 | fraction unbound [16]: 0.03 | fraction unbound [17]: 0.07 | IC50 [18]: 2200 nM | Activity (Rattus norvegicus [19]): Non-toxic | clearance [20]: 3.9 mL/min/kg | clearance [21]: 8.2 mL/min/kg | half-life [22]: 4.9 h | half-life [23]: 8.7 h | half-life [24]: 2.8 h | bioavailability [25]: 41% | bioavailability [26]: 63% | bioavailability [27]: 46% | inhibition (INH) (Rattus norvegicus [28]): >150% | Activity (Rattus norvegicus [29]): 130 nM | Activity (Rattus norvegicus [30]): Active | Activity (Salmonella typhimurium): Non-toxic | Activity (Cavia porcellus): Non-toxic | Activity (Rattus norvegicus [31]): Non-toxic | Activity (Rattus norvegicus [32]): Non-toxic | Activity (Rattus norvegicus [33]): Non-toxic | Activity (Rattus norvegicus [34]): Toxic | Activity (Rattus norvegicus [35]): Toxic | Activity (Rattus norvegicus [36]): Toxic | Occ50 (Rhesus monkey [37]): 1.1 µM | Ratio (Rhesus monkey [38]): 2 | Selectivity ratio (Homo sapiens): > 5800 | IC50 (Cytochrome P450 3A4 [6]): > 50000 nM

Compound: Cc1c(Cl)nc(OC[C@H]2C[C@@H]2c2ccccn2)nc1NCc1cnn(C)c1
EC50 [3]: 5600 nM | solubility [2]: 162 µM (≈ 62.3 µg/mL) | INH [4]: > 60 µM | fraction unbound [5]: 0.01 | clearance [39]: 29 mL/min/kg | Selectivity ratio (Homo sapiens): > 2500 | IC50 (Cytochrome P450 3A4 [6]): 3800 nM | IC50 (Cytochrome P450 2C9): 5200 nM

Compound: Cc1nc(C)c(CNc2nc(OC[C@H]3C[C@@H]3c3ccccn3)nc(Cl)c2C)s1 (racemic)
Ki [1]: 0.07 nM

Compound: Cc1nc(C)c(CNc2nc(OCC#Cc3ccccn3)nc(Cl)c2C)s1
Ki [1]: 3.1 nM

Compound: Cc1nc(C)c(CNc2nc(OCC3CC3c3ccc4ccccc4n3)nc(Cl)c2C)s1 (racemic)
Ki [1]: 0.01 nM

Compound: Cc1nc(C)c(CNc2nc(OCC3CC3c3cncn3C)nc(Cl)c2C)s1 (centres undefined)
Ki [1]: 20.3 nM

Compound: Cc1nc(C)c(CNc2nc(OC[C@H]3C[C@H]3c3ccccn3)nc(Cl)c2C)s1 (racemic)
Ki [1]: 15.5 nM

Further lines, with some results ahead:

Ki [1]: 3.1 nM
Compound: Cc1nc(C)c(CNc2nc(CCCOc3ccccn3)nc(Cl)c2C)s1

Ki [1]: 19.1 nM
Compound: Cc1nc(C)c(CNc2nc(NCC(C)(C)Cc3ccccn3)nc(Cl)c2C)s1

solubility [2]: 4 µM (≈ 1.57 µg/mL)
Compound: Cn1cc(-c2ccncc2)c(-c2ccc(OCc3ccc4ccccc4n3)cc2)n1 [MARDEPODECT]

EC50 [3]: > 250000 nM | solubility [2]: 196 µM (≈ 58.7 µg/mL) | fraction unbound [5]: 0.08 | IC50 (Cytochrome P450 3A4 [6]): > 50000 nM
Compound: Cc1nc(C)c(CNc2cc(C3CC3)nc3ccnn23)s1
INH [4]: 52 µM

Ki [1]: 1.4 nM
Compound: Cc1nc(C)c(CNc2nc(OCC3CC3c3ccc(C#N)cn3)nc(Cl)c2C)s1 (racemic)

Ki [1]: 8.3 nM
Compound: Cc1nc(C)c(CNc2nc(OCC3CC3c3ccncc3)nc(Cl)c2C)s1 (centres undefined)

EC50 [3]: 19000 nM | solubility [2]: 2 µM (≈ 0.618 µg/mL) | fraction unbound [7]: 0.015 | IC50 (Cytochrome P450 3A4 [6]): 17000 nM | IC50 (Cytochrome P450 2D6): 8200 nM
Compound: Cc1nc(C)c(CNc2nc(C3CC3)nc(Cl)c2C)s1

EC50 [3]: 2300 nM | clearance [8]: 60 mL/min/kg
Compound: Cc1nc(C)c(CNc2nc(OCCCc3ccc4ccccc4n3)nc(Cl)c2C)s1
INH [4]: 3.8 µM

Ki [1]: 54 nM
Compound: Cc1nc(C)c(CNc2nc(OCC3CC3C3CCCN3C)nc(Cl)c2C)s1 (racemic; form 2)

Ki [1]: 0.02 nM
Compound: Cc1nc(C)c(CNc2nc(OCC3CC3c3cn(C)cn3)nc(Cl)c2C)s1 (racemic)

Ki [1]: 0.02 nM
Compound: Cc1nc(C)c(CNc2nc(OCC3CC3c3ccc4ncccc4n3)nc(Cl)c2C)s1 (racemic)

Ki [1]: 102 nM
Compound: Cc1nc(C)c(CNc2nc(OCC3CC3C3CCCN3C)nc(Cl)c2C)s1 (racemic; form 1)

Ki [1]: 8.6 nM
Compound: Cc1nc(C)c(CNc2nc(OC[C@@H]3C[C@H]3c3ccccn3)nc(Cl)c2C)s1

solubility [2]: 150 µM (≈ 30.5 µg/mL)
Compound: Cc1c(Cl)nc(C2CC2)nc1Cl

Ki [1]: 1.1 nM
Compound: Cc1nc(C)c(CNc2nc(OCCCc3ccccn3)nc(Cl)c2C)s1

Ki [1]: 0.01 nM
Compound: COc1ccnc(C2CC2COc2nc(Cl)c(C)c(NCc3sc(C)nc3C)n2)c1 (racemic)
